What was measured:
[1] = tested on: murine colon tumor, C26/clone 10; assay: Murine colon tumor C26/clone 10 implanted subcutaneously in mice, compound given IP or PO on Days 1 through 14; assay type: in vivo, Male CD2F1 mice; conditions: for Change in Body Weight (grams): Days 1 through 14
Experimental: Male CD2F1 mice (NCI: Charles River, Kingston) were implanted subcutaneously with tumor fragments (approximately 30 mg) in the region of the right axilla on Day 0. […] The vehicle for the test compound, and for control animals, was 10% EtOH/10% Cremophor-EL (Sigma)/80% H2O, pH 5.0. Tumor volumes were recorded three times per week by measuring the length and width of the individual tumors and calculating mass in milligrams according to the formula (a × b^2)/2, where a and b are the length and width of the tumor. Percent treated/control (T/C) was calculated based on the ratio of the median tumor volume of the treated tumors compared with the median tumor volume of control animals on specified measurement days.

MEK [2] = molecular target: T1, MEK (Homo sapiens, UniProt Q02750); assay: Cascade assay for inhibitors of the MAP kinase pathway (32P incorporation into MBP with GST-MEK and GST-MAPK); assay type: biochemical; conditions: read-out: % Inhibition In Vitro
T1 sequence (Q02750 whole entry, the tested form may be a part): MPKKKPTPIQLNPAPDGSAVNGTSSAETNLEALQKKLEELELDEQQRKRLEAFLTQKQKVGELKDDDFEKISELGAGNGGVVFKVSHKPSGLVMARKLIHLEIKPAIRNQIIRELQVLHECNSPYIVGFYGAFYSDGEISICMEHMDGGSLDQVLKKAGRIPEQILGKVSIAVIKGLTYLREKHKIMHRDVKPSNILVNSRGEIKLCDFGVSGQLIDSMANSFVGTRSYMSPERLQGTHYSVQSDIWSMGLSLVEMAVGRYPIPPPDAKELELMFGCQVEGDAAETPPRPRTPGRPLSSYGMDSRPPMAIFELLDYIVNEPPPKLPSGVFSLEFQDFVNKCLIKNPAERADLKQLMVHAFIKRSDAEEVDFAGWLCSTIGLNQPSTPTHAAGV
Experimental: Incorporation of ^32P into myelin basic protein (MBP) was assayed in the presence of a glutathione S-transferase fusion protein containing p44MAP kinase (GST-MAPK) and a glutathione S-transferase fusion protein containing p45MEK (GST-MEK). The assay solution contained 20 mM HEPES, pH 7.4, 10 mM MgCl2, 1 mM MnCl2, 1 mM EGTA, 50 µM [γ-^32P]ATP, 10 µg GST-MEK, 0.5 µg GST-MAPK and 40 µg MBP in a final volume of 100 µL. […] Compounds were assessed at 10 µM for ability to inhibit incorporation of ^32P.
To ascertain whether compounds were inhibiting GST-MEK or GST MAPK, two additional protocols were employed. In the first protocol, compounds were added to tubes containing GST-MEK, followed by addition of GST-MAPK, MBP and [γ-^32P]ATP. In the second protocol, compounds were added to tubes containing both GST-MEK and GST-MAPK, followed by MBP and [γ-^32P]ATP.

MEK [3] = molecular target: T1, MEK; assay: as above; assay type: biochemical; conditions: read-out: % Inhibition In Vitro; remark: listed apart in the source

| Structure (SMILES) | inhibition at 10 µM (MEK [2]) | inhibition at 1 µM (MEK [3]) | further results |
| --- | --- | --- | --- |
| O=C(NOCC1CC1)c1ccc(F)c(F)c1Nc1ccc(I)cc1Cl [Example 95, 3,4-Difluoro-2-(2-chloro-4-iodo-phenylamino)-N-cyclopropylmethoxy-benzamide] |  |  | % T/C (Day 15) ([1]; IP, 48 mg/kg/day): 41%; Change in Body Weight (grams) ([1]; IP, 48 mg/kg/day): +3 grams; % T/C (Day 15) ([1]; IP, 77 mg/kg/day): 2%; Change in Body Weight (grams) ([1]; IP, 77 mg/kg/day): +2 grams; % T/C (Day 15) ([1]; IP, 124 mg/kg/day): 4%; Change in Body Weight (grams) ([1]; IP, 124 mg/kg/day): +3 grams; % T/C (Day 15) ([1]; IP, 200 mg/kg/day): 0%; Change in Body Weight (grams) ([1]; IP, 200 mg/kg/day): +2 grams; % T/C (Day 17) ([1]; PO, 71 mg/kg/day): 36%; Change in Body Weight (grams) ([1]; PO, 71 mg/kg/day): +2 grams; % T/C (Day 17) ([1]; PO, 115 mg/kg/day): 21%; Change in Body Weight (grams) ([1]; PO, 115 mg/kg/day): +2 grams; % T/C (Day 17) ([1]; PO, 186 mg/kg/day): 25%; Change in Body Weight (grams) ([1]; PO, 186 mg/kg/day): +2 grams; % T/C (Day 17) ([1]; PO, 300 mg/kg/day): 17%; Change in Body Weight (grams) ([1]; PO, 300 mg/kg/day): +2 grams |
| Cc1ccc(Cl)c(Nc2ccccc2C(=O)N(O)Cc2ccccc2)c1Cl [the 8th table: R6=CH2-Ph, R7=H] | 18% | -4% |  |
| CONC(=O)c1ccccc1Nc1c(Cl)ccc(C)c1Cl [the 8th table: R6=H, R7=CH3] | 8% | -8% |  |
| Cc1ccc(Cl)c(Nc2ccccc2C(=O)NO)c1Cl [the 8th table: R6=H, R7=H] | -3% | 9% |  |

More lines, main results first:

| inhibition at 10 µM (MEK [2]) | inhibition at 1 µM (MEK [3]) | Structure (SMILES) | further results |
| --- | --- | --- | --- |
| 19% | -5% | Cc1ccc(Cl)c(Nc2ccccc2C(=O)N(C)O)c1Cl [the 8th table: R6=CH3, R7=H] |  |
| 9% | 17% | Cc1ccc(Cl)c(Nc2ccccc2C(=O)N(O)C(C)C)c1Cl [the 8th table: R6=iPr, R7=H] |  |
| 19% | 13% | Cc1cccc(Nc2ccccc2C(=O)N(C)O)c1C [the 9th table: R6=CH3, R7=H] |  |
| 12% | -6% | CONC(=O)c1ccccc1Nc1cccc(C)c1C [the 9th table: R6=H, R7=CH3] |  |
| -4% | 6% | Cc1cccc(Nc2ccccc2C(=O)NO)c1C [the 9th table: R6=H, R7=H] |  |
| 7% | -11% | Cc1cccc(Nc2ccccc2C(=O)N(O)C(C)C)c1C [the 9th table: R6=iPr, R7=H] |  |

— EP0993439B1, “4-BROMO OR 4-IODO PHENYLAMINO BENZHYDROXAMIC ACID DERIVATIVES AND THEIR USE AS MEK INHIBITORS” (priority 1997, dated 1999)
